How the values were obtained:
[1] = biological target: T1, GDP-loaded KRAS (1-169) G12C, C51S, C80L, C118S (Homo sapiens, UniProt P01116, C118S/C51S/C80L/G12C); assay: Mass Spectrometry Reactivity Assay (MSRA): covalent adduct of compound and KRAS G12C, Percent Modification; assay type: binding; conditions: for MSRA (% modification) 5.0 μM 0.25 hr / MSRA (% modification) 5.0 μM 0.017 hr: 5.0 μM compound; for MSRA (% modification) 10 μM 0.25 hr / MSRA (% modification) 10 μM 0.50 hr: 10 μM compound
T1 construct: GDP-loaded KRAS (1-169) G12C, C51S, C80L, C118S
Procedure: Mass Spectrometry Reactivity Assay (MSRA)
Compounds presented in the present invention covalently bind to KRAS G12C using MSRA to detect a covalent adduct of the exemplary compound and KRAS G12C.
GDP-loaded KRAS (1-169) G12C, C51S, C80L, C118S were diluted in the protein assay buffer 25 mM Hepes pH7.5, 200 mM NaCl, 5% glycerol to concentration of 5 μM and 20 μl of protein was transferred into 96-well plate. Initial compound stocks were generated at concentrations 100-fold higher that their desired assay concentrations. See K-Ras(G12C) inhibitors allosterically control GTP affinity and effector interactions; Ostrem J M, Peters U, Sos M L, Wells J A, Shokat K M; Nature. 2013, Nov. 28; 503(7477):548-51.
Exemplary compounds dissolved in DMSO were diluted 100-fold into solution containing 20 μl of 5 μM KRAS protein in the 96-well plate to initiate the reaction. Mosquito (TPP Lab tech) liquid handling robot was used to add compounds to protein solution. Typical final concentration of the compounds was 5 μM or 10 μM. The plates were placed on a shaker for 1 min at RT, sealed and incubated at room temperature for specified time period. 5 μl of reaction mix was added to 10 μl of 0.2% formic acid stop solution and mixed well. Typical end points were 1, 15, 30, and 60 min.
Data were collected using Waters Acquity H-class UPLC system/Xevo G2-XS TOF mass spectrometer. The protein was injected in their liquid phase onto a Bruker Microtrap protein column TR1/15109/03. The following buffers were used to set LC gradient: Buffer A: 0.2% formic acid H2O; B: 0.2% formic acid CAN. The protein was eluted from the column using the following LC Gradient: 0-0.4 min, 10% B to 30% B; 0.4 min-2.4 min, to 90% B, 2.5 min, 10% B, 3 min, 10% B. Initial data analysis was performed using MaxEnt software right after data acquisition.
The standard auto processing function was used to define percentage of unmodified and modified KRAS protein using MexEnt software right after data acquisition. The highest peak was defined as 100% while smaller peak as assigned the number defined by autoprocessing function. The percent of modification corresponding to modified with exemplary compound and unmodified KRAS GDP-loaded KRAS (1-169) G12C, C51S, C80L, C118S were exported to Xcel data analysis software.
The percent of modified protein at the defined concentration of exemplary compound was calculated using the following formula: % mod=Num of modified peak/Sum of modified+unmodified. The resultant value defined as Percent Modification (PM) and an increase in PM reflects that the specific compound is better than other compounds at specified compound concentration at a given time point.

[2] = biological target: KRAS G12C (Homo sapiens, UniProt P01116, G12C); assay: Cell Activity Assay: accumulation of GDP-bound KRAS G12C in MIAPaCa-2 cells (Raf-1 RBD capture, MSD readout); assay type: cell-based; parameters: endogenous in cells; host or cells: MIAPaCa-2; conditions: 6 hours, assay limit is 30.00
Procedure: Compounds presented in the present invention lead to the accumulation of the GDP bound Ras upon treatment of human cancer cell line.
The accumulation of the GDP-bound KRAS G12C in cellular environment was measured based on the principle that KRAS G12C only binds to its downstream kinase; Raf-1 (MAP Kinase Kinase Kinase), when in its active-GTP bound state. In this state, Ras binded to a domain of Raf-1 kinase referred to as the Ras Binding Domain (RBD).
MIAPaCa-2 cells were grown in RPMI 1640 medium (Gibco 11875) supplemented with 10% fetal bovine serum and 1% penicillin/streptomycin. Cells were seeded in 96-well tissue culture plates at a density of 30,000 cells/well and allowed to attach for 16-24 hours. Test compounds were prepared as a 10 mM stock in DMSO and serially diluted in 100% DMSO using a 3-fold dilution scheme. An intermediate 5× concentrated plate in complete growth medium was made and 25 μl/well was added to the 100 μl of cells for a final concentration of 0.3% DMSO. Each concentration of exemplary compound was tested in duplicate. The negative control wells were cells with control inhibitor at 10 μM, and the positive control wells were cells without drugs, DMSO only. Plates were incubated for 6 hours at 37° C., 5% CO2. Following treatment, cells were washed 3× with ice-cold PBS and 115 μl/well ice-cold 1× Assay/Lysis. Buffer with protease inhibitors was added (25 mM HEPES, pH 7.5, 150 mM NaCl, 1% NP-40, 10 mM MgCl2, 1 mM EDTA, 2% Glycerol). Following lysis samples were frozen at −80° C.
Raf-1 RBD (LJIC-1988A1) was diluted to 100 ng/well in PBS and 5 μl/well was spot coated onto MSD high bind SECTOR plates (L15XB). Plates were incubated at room temperature for 1 hour on an orbital shaker. Plates were washed with PBS/0.05% Tween-20 and 50 μl/well of thawed lysate samples were added, followed by 50 μl of 1% MSD Blocker A in PBS/0.05 Tween-20 (R93BA). Plates were incubated for 1 hour on an orbital shaker and washed with PBS/0.05% Tween-20. 25 μl/well of Anti-pan-Ras Antibody (Cell Biolabs 244003) diluted 1:3000 was added in 1% MSD Blocker A solution and plates were incubated for 1 hour on an orbital shaker and washed with PBS/0.05% Tween-20. SULFO-TAG goat anti-mouse secondary antibody (MSD R32AC) was diluted 1:500 in MSD Blocker A solution and added at 25 μL/well. Plates were incubated for 1 hour on an orbital shaker and washed with PBS/0.05% Tween-20. 150 μl/well of Read Buffer T (MSD R92TC) diluted 1:3 in H2O was added and plates were read on a Meso Scale Discovery Sector Imager S600.
KRAS signal was normalized to maximum inhibition and DMSO control values, and IC50 values were generated using a 4 parameter fit of the dose response curve. The decrease in IC50 reflects that the exemplary compound lead to a higher level of accumulation of GDP-bound KRAS G12C than another exemplary compounds at specific timepoint of treatment of cancer cell line.

Structure (SMILES)	MSRA (% modification) 5.0 μM 0.25 hr [1]	MSRA (% modification) 10 μM 0.25 hr [1]	IC50 [2]	MSRA (% modification) 5.0 μM 0.017 hr [1]	MSRA (% modification) 10 μM 0.50 hr [1]
C=CC(=O)N1CCN(c2nc(OCc3cscn3)nc3c(Oc4c(C)ccc5[nH]ncc45)cccc23)CC1 [Example 23F, 1-(4-{8-[(5-methyl-1H-indazol-4-yl)oxy]-2-(1,3-thiazol-4-ylmethoxy)quinazolin-4-yl}piperazin-1-yl)prop-2-en-1-one]	55%	66%	0.944 µM		
C=CC(=O)N1CCN(c2nc(OC[C@@H]3CCCN3C)nc3c(Oc4c(C)c(Cl)cc5[nH]ncc45)nccc23)CC1 [Example 13B, 1-[4-(8-[(6-chloro-5-methyl-1H-indazol-4-yl)oxy]-2-{[(2S)-1-methylpyrrolidin-2-yl]methoxy}pyrido[3,4-d]pyrimidin-4-yl)piperazin-1-yl]prop-2-en-1-one]	19%	74%	0.16 µM		
C=CC(=O)N1CCN(c2nc(OC[C@@H]3CCCN3C)nc3c(Oc4c(Cl)c(C)cc5[nH]ncc45)nc(Cl)cc23)CC1 [Example 06G, 1-[4-(6-chloro-8-[(5-chloro-6-methyl-1H-indazol-4-yl)oxy]-2-{[(2S)-1-methylpyrrolidin-2-yl]methoxy}pyrido[3,4-d]pyrimidin-4-yl)piperazin-1-yl]prop-2-en-1-one]	52%	82%	0.064 µM	23%	
C=CC(=O)N1CCN(c2nc(Oc3cccc4c3CCN(C)C4)nc3c(Oc4c(Cl)c(F)cc5[nH]ncc45)nccc23)CC1 [Example 22I, 1-(4-{8-[(5-chloro-6-fluoro-1H-indazol-4-yl)oxy]-2-[(2-methyl-1,2,3,4-tetrahydro-isoquinolin-5-yl)oxy]pyrido [3,4-d]pyrimidin-4-yl}piperazin-1-yl)prop-2-en-1-one]			0.003 µM	80%	
C=CC(=O)N1CCN(c2nc(OC[C@H]3CCCN3C)nc3c(Oc4c(Cl)c(F)cc5[nH]ncc45)cccc23)CC1 [Example 20E, 1-[4-(8-[(5-chloro-6-fluoro-1H-indazol-4-yl)oxy]-2-{[(2R)-1-methylpyrrolidin-2-yl]methoxy}quinazolin-4-yl)piperazin-1-yl]prop-2-en-1-one]		8%	1.02 µM		
C=CC(=O)N1CCN(c2nc(N3CCN(C)CC3)nc3c(Oc4c(C)ccc5[nH]ncc45)nccc23)CC1 [Example 03B, 1-(4-{8-[(5-methyl-1H-indazol-4-yl)oxy]-2-(4-methylpiperazin-1-yl)pyrido[3,4-d]pyrimidin-4-yl}piperazin-1-yl)prop-2-en-1-one]			27.1 µM		6%
C=CC(=O)N1CCN(c2nc(Oc3cccnc3C)nc3c(Oc4c(Cl)c(F)cc5[nH]ncc45)nccc23)CC1 [Example 14I, 1-(4-{8-[(5-chloro-6-fluoro-1H-indazol-4-yl)oxy]-2-[(2-methyl-pyridin-3-yl)oxy]pyrido [3,4-d]pyrimidin-4-yl}piperazin-1-yl)prop-2-en-1-one]	14%		0.366 µM		
C=CC(=O)N1CCN(c2ncnc3c(Oc4c(Cl)c(C)cc5[nH]ncc45)nccc23)C[C@H]1C [Example 21A, 1-[(2R)-4-{8-[(5-chloro-6-methyl-1H-indazol-4-yl)oxy]pyrido[3,4-d]pyrimidin-4-yl}-2-methylpiperazin-1-yl]prop-2-en-1-one]			10.6 µM		12%
C=CC(=O)N1CCN(c2nc(N3CC(N(C)C)C3)nc3c(Oc4c(Cl)c(F)cc5[nH]ncc45)nc(Cl)cc23)CC1 [Example 05G, 1-(4-{6-chloro-8-[(5-chloro-6-fluoro-1H-indazol-4-yl)oxy]-2-[3-(dimethylamino)azetidin-1-yl]pyrido[3,4-d]pyrimidin-4-yl}piperazin-1-yl)prop-2-en-1-one]	80%	81%	0.164 µM		82%
C=CC(=O)N1CCN(c2nc(O[C@@H]3CCOC3)nc3c(Oc4c(Cl)c(F)cc5[nH]ncc45)nccc23)CC1 [Example 02J, 1-(4-{8-[(5-chloro-6-fluoro-1H-indazol-4-yl)oxy]-2-[(3R)-tetrahydrofuran-3-yloxy]pyrido[3,4-d]pyrimidin-4-yl}piperazin-1-yl)prop-2-en-1-one]	26%		0.62 µM		
C#CCN1C[C@@H](OC)[C@H](Oc2nc(N3CCN(C(=O)C=C)CC3)c3ccnc(Oc4c(Cl)c(F)cc5[nH]ncc45)c3n2)C1 [Example 43I, 1-[4-(8-[(5-chloro-6-fluoro-1H-indazol-4-yl)oxy]-2-{[(3R,4R)-4-methoxy-1-(prop-2-yn-1-yl)pyrrolidin-3-yl]oxy}pyrido [3,4-d]pyrimidin-4-yl)piperazin-1-yl]prop-2-en-1-one]			0.019 µM	54%	
C=CC(=O)N1CCN(c2nc(OC)nc3c(Oc4c(C)ccc5[nH]ncc45)nccc23)CC1 [Example 01B, 1-(4-{2-methoxy-8-[(5-methyl-1H-indazol-4-yl)oxy]pyrido[3,4-d]pyrimidin-4-yl}piperazin-1-yl)prop-2-en-1-one]			16.9 µM		12%
C=CC(=O)N1CCN(c2nc(Oc3cccc4c3CCN(C(C)C)C4)nc3c(Oc4c(Cl)c(F)cc5[nH]ncc45)nccc23)CC1 [Example 19I, 1-[4-(8-[(5-chloro-6-fluoro-1H-indazol-4-yl)oxy]-2-{[2-(propan-2-yl)-1,2,3,4-tetrahydro-isoquinolin-5-yl]oxy}pyrido [3,4-d]pyrimidin-4-yl)piperazin-1-yl]prop-2-en-1-one]			0.003 µM	82%	
